Measured values published in BindingDB's records for patent US20250214967 (Berrybio (Shanghai), 2025).

Biological target: Focal adhesion kinase 1 (Homo sapiens, UniProt Q05397)
Experiment: FAK Kinase Assay
Procedure: The inhibitory activity of a compound against FAK was determined in a buffer containing 5 mM HEPES, pH 7.5, 0.01% Triton, 0.5 mM EGTA, and 0.01% BRIJ™-35 in a 384-well assay plate. The assay was carried out in the presence of the FAK at 1 nM and ATP at 6.8 μM using fluorescein-polyGT (0.2 μM) as an FAK substrate. Each assay mixture was incubated at room temperature for 30 min. A LANTHASCREEN Tb-PY20 antibody was added to each well to stop the enzymatic reaction. The plate was incubated at room temperature for 60 min before reading on an ENVISION using TR-FRET module (excitation at 340 nm and emission at 520 nm and 495 nm).

Focal adhesion kinase 1, sequence (Q05397 whole entry): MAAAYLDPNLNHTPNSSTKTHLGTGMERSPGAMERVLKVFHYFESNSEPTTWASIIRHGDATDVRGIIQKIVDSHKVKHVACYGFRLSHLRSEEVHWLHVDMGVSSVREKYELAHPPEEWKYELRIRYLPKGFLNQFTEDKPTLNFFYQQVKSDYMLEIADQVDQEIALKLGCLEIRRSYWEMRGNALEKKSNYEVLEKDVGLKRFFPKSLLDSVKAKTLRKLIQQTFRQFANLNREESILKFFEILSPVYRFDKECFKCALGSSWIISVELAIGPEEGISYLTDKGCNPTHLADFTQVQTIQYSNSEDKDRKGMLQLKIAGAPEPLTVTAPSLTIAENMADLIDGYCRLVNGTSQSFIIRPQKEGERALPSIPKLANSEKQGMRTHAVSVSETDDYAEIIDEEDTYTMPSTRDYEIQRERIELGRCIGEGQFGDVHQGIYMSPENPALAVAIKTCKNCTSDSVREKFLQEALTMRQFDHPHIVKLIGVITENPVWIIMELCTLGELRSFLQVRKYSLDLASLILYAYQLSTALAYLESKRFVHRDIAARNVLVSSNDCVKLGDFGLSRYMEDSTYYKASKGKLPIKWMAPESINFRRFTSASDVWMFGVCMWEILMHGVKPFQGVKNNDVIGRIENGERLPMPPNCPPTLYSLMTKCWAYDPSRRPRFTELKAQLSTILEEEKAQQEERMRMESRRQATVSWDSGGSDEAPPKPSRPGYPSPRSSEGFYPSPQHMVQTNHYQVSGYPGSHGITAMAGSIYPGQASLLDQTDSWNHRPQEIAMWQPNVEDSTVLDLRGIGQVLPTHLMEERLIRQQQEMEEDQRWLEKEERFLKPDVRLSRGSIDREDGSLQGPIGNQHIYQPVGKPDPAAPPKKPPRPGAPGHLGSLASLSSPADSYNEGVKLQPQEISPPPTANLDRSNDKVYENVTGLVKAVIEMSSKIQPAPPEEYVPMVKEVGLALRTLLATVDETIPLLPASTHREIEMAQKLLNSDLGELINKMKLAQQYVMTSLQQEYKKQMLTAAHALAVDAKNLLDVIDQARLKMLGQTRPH

For `Cc1cc(Cc2ncc(C(F)(F)F)c(NCC3C=C(N(C)S(C)(=O)=O)CCC3)n2)ccc1OCCOCCOCCOc1ccc2c(c1)C(=O)N(C1CCC(=O)NC1=O)C2=O` (stereo unspecified) [US20250214967, Compound A2], the IC50 was 3 nM.
